Where two headings read alike, the source gives them in different places.
Tests used:
Assay in all cases: biochemical
E. coli DNA gyrase = E. coli DNA gyrase (Escherichia coli, UniProt P0AES4+P0AES6); conditions: for IC50: IC50 DNA gyrase; for inhibition at 50 µM: read-out: % inhibition DNA gyrase
E. coli Topoisomerase IV = E. coli Topoisomerase IV (Escherichia coli, UniProt P0AFI2+P20083); conditions: for IC50: IC50 Topo IV; for inhibition at 50 µM: read-out: % inhibition Topo IV
S. aureus DNA gyrase = S. aureus DNA gyrase (Staphylococcus aureus, UniProt P0A0K8+P20831); conditions: for IC50: IC50 DNA gyrase; for inhibition at 50 µM: read-out: % inhibition DNA gyrase
S. aureus DNA gyrase, sequence (P0A0K8 whole entry): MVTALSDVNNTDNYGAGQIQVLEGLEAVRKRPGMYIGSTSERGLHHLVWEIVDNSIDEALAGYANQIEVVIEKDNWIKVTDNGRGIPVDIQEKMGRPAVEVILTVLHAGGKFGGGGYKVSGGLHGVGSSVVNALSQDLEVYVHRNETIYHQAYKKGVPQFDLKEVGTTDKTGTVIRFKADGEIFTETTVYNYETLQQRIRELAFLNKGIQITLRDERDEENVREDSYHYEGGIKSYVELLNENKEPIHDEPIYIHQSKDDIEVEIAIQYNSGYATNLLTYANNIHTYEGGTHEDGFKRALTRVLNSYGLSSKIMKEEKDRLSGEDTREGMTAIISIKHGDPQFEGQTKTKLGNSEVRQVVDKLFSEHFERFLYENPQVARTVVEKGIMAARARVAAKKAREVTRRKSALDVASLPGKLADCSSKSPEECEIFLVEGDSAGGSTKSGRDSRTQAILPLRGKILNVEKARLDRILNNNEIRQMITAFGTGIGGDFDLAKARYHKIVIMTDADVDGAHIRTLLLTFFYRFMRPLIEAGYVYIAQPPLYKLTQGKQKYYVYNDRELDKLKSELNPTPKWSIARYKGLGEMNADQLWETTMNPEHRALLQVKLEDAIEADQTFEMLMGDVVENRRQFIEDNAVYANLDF
S. aureus DNA gyrase, sequence (P20831 whole entry): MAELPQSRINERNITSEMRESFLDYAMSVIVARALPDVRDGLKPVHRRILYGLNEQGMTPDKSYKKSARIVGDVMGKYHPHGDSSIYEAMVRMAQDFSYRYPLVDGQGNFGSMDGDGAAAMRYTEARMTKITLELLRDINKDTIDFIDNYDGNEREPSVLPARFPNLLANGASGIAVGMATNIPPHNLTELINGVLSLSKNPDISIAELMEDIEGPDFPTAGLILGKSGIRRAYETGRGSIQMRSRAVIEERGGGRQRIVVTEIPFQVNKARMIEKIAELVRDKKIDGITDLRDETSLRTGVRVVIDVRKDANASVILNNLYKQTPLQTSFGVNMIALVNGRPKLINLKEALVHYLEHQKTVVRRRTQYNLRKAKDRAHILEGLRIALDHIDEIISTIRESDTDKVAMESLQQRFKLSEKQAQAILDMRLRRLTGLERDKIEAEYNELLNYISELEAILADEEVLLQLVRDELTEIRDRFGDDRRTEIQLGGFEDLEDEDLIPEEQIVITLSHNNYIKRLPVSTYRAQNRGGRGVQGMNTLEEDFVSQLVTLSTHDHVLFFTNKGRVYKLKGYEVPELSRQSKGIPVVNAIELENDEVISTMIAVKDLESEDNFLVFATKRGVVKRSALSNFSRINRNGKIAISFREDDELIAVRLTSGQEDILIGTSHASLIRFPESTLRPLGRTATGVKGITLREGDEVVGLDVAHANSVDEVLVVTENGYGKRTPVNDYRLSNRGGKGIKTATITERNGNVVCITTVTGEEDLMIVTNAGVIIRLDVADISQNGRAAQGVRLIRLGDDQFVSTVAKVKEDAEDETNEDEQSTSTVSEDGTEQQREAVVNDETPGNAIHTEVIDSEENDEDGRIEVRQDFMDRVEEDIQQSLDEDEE

[1] = target: S. aureus Topoisomerase IV (Staphylococcus aureus, UniProt P0C1S7+P0C1U9); conditions: for inhibition at 50 µM: read-out: % inhibition Topo IV
[2] = S. aureus, compound conc. 50 μM, percent of inhibition versus positive control, n/a = not active

E. coli DNA gyrase, sequence (P0AES4 whole entry, one chain of several): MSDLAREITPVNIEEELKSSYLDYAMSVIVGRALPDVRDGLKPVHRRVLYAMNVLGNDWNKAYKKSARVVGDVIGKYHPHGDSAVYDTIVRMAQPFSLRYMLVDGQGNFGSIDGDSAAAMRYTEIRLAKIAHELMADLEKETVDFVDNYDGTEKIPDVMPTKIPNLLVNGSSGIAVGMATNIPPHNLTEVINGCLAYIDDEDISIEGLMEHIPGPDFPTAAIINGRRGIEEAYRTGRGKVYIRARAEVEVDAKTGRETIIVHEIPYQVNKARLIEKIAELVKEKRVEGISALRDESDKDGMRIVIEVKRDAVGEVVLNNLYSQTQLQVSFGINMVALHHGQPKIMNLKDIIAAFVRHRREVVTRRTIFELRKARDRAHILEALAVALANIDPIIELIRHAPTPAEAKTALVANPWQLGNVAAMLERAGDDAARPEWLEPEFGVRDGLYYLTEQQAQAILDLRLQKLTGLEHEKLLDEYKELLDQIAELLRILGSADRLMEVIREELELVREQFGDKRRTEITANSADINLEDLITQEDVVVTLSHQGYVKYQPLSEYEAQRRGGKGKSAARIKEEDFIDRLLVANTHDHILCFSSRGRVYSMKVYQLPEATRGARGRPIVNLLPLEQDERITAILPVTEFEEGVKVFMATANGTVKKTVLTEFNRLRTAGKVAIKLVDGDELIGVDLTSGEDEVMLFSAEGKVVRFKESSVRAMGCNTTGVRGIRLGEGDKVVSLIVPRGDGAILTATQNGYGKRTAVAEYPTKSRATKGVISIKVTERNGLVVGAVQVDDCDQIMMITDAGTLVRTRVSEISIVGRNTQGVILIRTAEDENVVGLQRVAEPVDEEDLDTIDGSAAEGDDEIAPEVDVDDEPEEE
E. coli Topoisomerase IV, sequence (P0AFI2 whole entry): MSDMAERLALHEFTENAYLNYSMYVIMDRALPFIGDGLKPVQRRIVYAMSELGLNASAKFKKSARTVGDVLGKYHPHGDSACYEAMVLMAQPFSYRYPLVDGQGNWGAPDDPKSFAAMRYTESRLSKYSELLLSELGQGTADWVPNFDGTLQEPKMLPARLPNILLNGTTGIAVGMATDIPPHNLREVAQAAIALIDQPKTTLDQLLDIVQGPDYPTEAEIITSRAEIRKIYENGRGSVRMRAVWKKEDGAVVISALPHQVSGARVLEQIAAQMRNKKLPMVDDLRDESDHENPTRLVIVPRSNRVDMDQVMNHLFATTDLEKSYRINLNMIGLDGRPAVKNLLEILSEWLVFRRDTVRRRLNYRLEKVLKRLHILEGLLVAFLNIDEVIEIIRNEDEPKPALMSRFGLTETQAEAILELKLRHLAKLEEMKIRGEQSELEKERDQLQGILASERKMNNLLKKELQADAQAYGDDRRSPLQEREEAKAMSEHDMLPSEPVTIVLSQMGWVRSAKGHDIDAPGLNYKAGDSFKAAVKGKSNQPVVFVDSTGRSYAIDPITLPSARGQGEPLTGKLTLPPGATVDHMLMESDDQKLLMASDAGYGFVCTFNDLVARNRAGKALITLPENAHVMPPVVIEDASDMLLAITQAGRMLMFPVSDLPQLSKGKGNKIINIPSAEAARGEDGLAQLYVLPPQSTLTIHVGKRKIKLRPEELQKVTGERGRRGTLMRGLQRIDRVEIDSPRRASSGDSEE
E. coli Topoisomerase IV, sequence (P20083 whole entry): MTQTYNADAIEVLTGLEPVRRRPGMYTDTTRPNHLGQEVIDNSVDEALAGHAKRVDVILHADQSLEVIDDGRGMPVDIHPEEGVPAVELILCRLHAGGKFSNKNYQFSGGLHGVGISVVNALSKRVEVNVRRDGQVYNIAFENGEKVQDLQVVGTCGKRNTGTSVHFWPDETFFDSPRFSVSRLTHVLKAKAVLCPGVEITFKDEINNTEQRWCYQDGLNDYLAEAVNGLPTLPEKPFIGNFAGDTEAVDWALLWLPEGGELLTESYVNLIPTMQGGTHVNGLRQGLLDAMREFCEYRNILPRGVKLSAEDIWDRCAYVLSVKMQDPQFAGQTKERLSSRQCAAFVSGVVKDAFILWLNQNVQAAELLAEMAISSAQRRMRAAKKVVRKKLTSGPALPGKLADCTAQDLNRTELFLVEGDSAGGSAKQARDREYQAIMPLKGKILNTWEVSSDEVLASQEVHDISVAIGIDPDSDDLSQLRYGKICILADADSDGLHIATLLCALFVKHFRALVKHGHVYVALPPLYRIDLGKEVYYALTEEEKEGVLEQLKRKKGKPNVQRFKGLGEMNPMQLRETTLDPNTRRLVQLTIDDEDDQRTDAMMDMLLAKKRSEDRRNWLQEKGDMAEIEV

Row | SMILES | IC50 (E. coli DNA gyrase) | inhibition at 50 µM (E. coli DNA gyrase) | IC50 (E. coli Topoisomerase IV) | inhibition at 50 µM (E. coli Topoisomerase IV) | IC50 (S. aureus DNA gyrase) | inhibition at 50 µM (S. aureus DNA gyrase) | IC50 ([1]; IC50 Topo IV) | inhibition at 50 µM [1, 2] | inhibition at 50 µM [1] | % inhibition DNA gyrase (E. coli DNA gyrase) | % inhibition Topo IV (E. coli Topoisomerase IV) | % inhibition DNA gyrase (S. aureus DNA gyrase) | % inhibition Topo IV [1, 2] | IC50 ([1]; S. aureus, Table 4, eight half-log concentrations ranging from 0.1 to 300 μM, read-out: IC50 Topo IV)
1 | COc1cnc2ccc(=O)n([C@H]3CC[C@@H](NCc4cc5c(=O)oc6ccc(F)cc6c5[nH]4)CC3)c2c1 [Compound 205, 8-fluoro-2-({[cis-4-(7-methoxy-2-oxo-1,5-naphthyridin-1(2H)-yl)cyclohexyl]amino}methyl)[1]benzopyrano[4,3-b]pyrrol-4(1H)-one] | 100 nM | 100% | 310 nM | 100% | 170 nM | 100% | 100 nM | 100% | – | – | – | – | – | –
2 | N#Cc1ccc2ccc(=O)n([C@H]3CC[C@H](NCc4cc5c(=O)oc6ccc(F)cc6c5[nH]4)CC3)c2c1 [Compound 206, 1-(trans-4-{[(8-fluoro-4-oxo-1,4-dihydro[1]benzopyrano[4,3-b]pyrrol-2-yl)methyl]amino}cyclohexyl)-2-oxo-1,2-dihydroquinoline-7-carbonitrile] | 50 nM | 100% | < 100 nM | 100% | 130 nM | 100% | < 100 nM | 100% | – | – | – | – | – | –
3 | O=c1oc2ccc(F)cc2c2[nH]c(CN[C@H]3CC[C@H](n4c(=O)cnc5ncc(F)cc54)CC3)cc12 [Compound 209, 8-fluoro-2-({[trans-4-(7-fluoro-2-oxopyrido[2,3-b]pyrazin-1(2H)-yl)cyclohexyl]amino}methyl)[1]benzopyrano[4,3-b]pyrrol-4(1H)-one] | 130 nM | 100% | 1000 nM | 100% | 300 nM | 100% | 220 nM | 100% | – | – | – | – | – | –
4 | NC(=O)[C@]1(NCc2cc3c(=O)oc4ccc(F)cc4c3[nH]2)CC[C@H](N2C(=O)COc3ncc(F)cc32)CC1 [Compound 217, Trans-1-{[(8-fluoro-4-oxo-1,4-dihydro[1]benzopyrano[4,3-b]pyrrol-2-yl)methyl]amino}-4-(7-fluoro-2-oxo-2,3-dihydro-1H-pyrido[2,3-b][1,4]oxazin-1-yl)cyclohexane-1-carboxamide] | 1450 nM | 82% | 690 nM | 50% | 2150 nM | 100% | 2720 nM | 100% | – | – | – | – | – | –
5 | O=C1COc2ncc(F)cc2N1[C@H]1CC[C@H](NCc2cc3c(=O)oc4ccc(F)cc4c3[nH]2)CC1 [Compound 193, 8-fluoro-2-({[trans-4-(7-fluoro-2-oxo-2,3-dihydro-1H-pyrido[2,3-b][1,4]oxazin-1-yl)cyclohexyl]amino}methyl)[1]benzopyrano[4,3-b]pyrrol-4(1H)-one] | 250 nM | 77% | 1380 nM | 50% | 280 nM | 86% | 2250 nM | – | 74% | – | – | – | – | –
6 | O=c1oc2ccccc2c2[nH]c(CNCC3CN(c4nccc5ccc(F)cc45)CCO3)cc12 (single isomer, unassigned) [Compound 183, 2-[({[4-(7-fluoroisoquinolin-1-yl)morpholin-2-yl]methyl}amino)methyl][1]benzopyrano[4,3-b]pyrrol-4(1H)-one] | 770 nM | – | 2480 nM | – | 740 nM | – | 190 nM | – | – | 81% | 77% | 84% | 85% | –
7 | COc1cnc2ccc(=O)n(C3CCN(CCc4cc5c(=O)oc6ccc(F)cc6c5[nH]4)CC3)c2n1 [Compound 200] | 40 nM | 90% | < 100 nM | 100% | < 100 nM | 100% | < 100 nM | – | 100% | – | – | – | – | –
8 | COc1cnc2ncc(=O)n([C@H]3CC[C@H](NCc4cc5c(=O)oc6ccc(F)cc6c5[nH]4)CC3)c2c1 [Compound 212, 8-fluoro-2-({[trans-4-(7-methoxy-2-oxopyrido[2,3-b]pyrazin-1(2H)-yl)cyclohexyl]amino}methyl)[1]benzopyrano[4,3-b]pyrrol-4(1H)-one] | 100 nM | 100% | 170 nM | 100% | 140 nM | 100% | 70 nM | 100% | – | – | – | – | – | –
9 | O=c1oc2ccc(F)cc2c2[nH]c(CN[C@H]3CC[C@@H](n4c(=O)cnc5ncc(F)cc54)CC3)cc12 [Compound 210, 8-fluoro-2-({[cis-4-(7-fluoro-2-oxopyrido[2,3-b]pyrazin-1(2H)-yl)cyclohexyl]amino}methyl)[1]benzopyrano[4,3-b]pyrrol-4(1H)-one] | 440 nM | 92% | 13800 nM | 86% | 1300 nM | 100% | 1310 nM | 84% | – | – | – | – | – | –
10 | O=c1oc2ccccc2c2[nH]c(CNCC3CCN(c4nccc5ccc(F)cc45)C3)cc12 (single isomer, unassigned) [Compound 180, 2-[({[1-(7-fluoroisoquinolin-1-yl)pyrrolidin-3-yl]methyl}amino)methyl][1]benzopyrano[4,3-b]pyrrol-4(1H)-one] | 480 nM | 58% | 3780 nM | – | 1700 nM | 90% | 110 nM | 50% | – | – | 57% | – | – | –
11 | COc1ccc2ncc(=O)n([C@H]3CC[C@H](NCc4cc5c(=O)oc6ccc(F)cc6c5[nH]4)CC3)c2n1 [Compound 201, 8-fluoro-2-({[trans-4-(6-methoxy-3-oxopyrido[2,3-b]pyrazin-4(3H)-yl)cyclohexyl]amino}methyl)[1]benzopyrano[4,3-b]pyrrol-4(1H)-one] | < 100 nM | 100% | < 100 nM | 100% | 190 nM | 100% | < 100 nM | – | 100% | – | – | – | – | –
12 | COc1cnc2ncc(=O)n([C@H]3CC[C@@H](NCc4cc5c(=O)oc6ccc(F)cc6c5[nH]4)CC3)c2c1 [Compound 213, 8-fluoro-2-({[cis-4-(7-methoxy-2-oxopyrido[2,3-b]pyrazin-1(2H)-yl)cyclohexyl]amino}methyl)[1]benzopyrano[4,3-b]pyrrol-4(1H)-one] | 110 nM | 98% | 1000 nM | 97% | 280 nM | 100% | 580 nM | 84% | – | – | – | – | – | –
13 | O=c1cc(NCC(O)C2CCN(C[C@@H]3Cn4c(=O)ccc5ncc(=O)n3c54)CC2)c2cc(F)ccc2o1 (mixture of isomers) [Compound 343, (2R)-2-[(4-{2-[(6-fluoro-2-oxo-2H-1-benzopyran-4-yl)amino]-1-hydroxyethyl}piperidin-1-yl)methyl]-1,2-dihydro-3H,8H-2a,5,8a-triazaacenaphthylene-3,8-dione] | 910 nM | – | 1270 nM | – | 1980 nM | – | 8730 nM | – | – | – | – | – | – | –
14 | COc1cnc2c(c1)N([C@H]1CC[C@H](NCc3cc4c(=O)oc5ccc(F)cc5c4[nH]3)CC1)C(=O)CO2 [Compound 302, 8-fluoro-2-({[trans-4-(7-methoxy-2-oxo-2,3-dihydro-1H-pyrido[2,3-b][1,4]oxazin-1-yl)cyclohexyl]amino}methyl)[1]benzopyrano[4,3-b]pyrrol-4(1H)-one] | 590 nM | – | 120 nM | – | 580 nM | – | – | – | – | – | – | – | – | 3260 nM
15 | COc1ccc2ncc(=O)n(C3CCN(CCc4cc5c(=O)oc6ccc(F)cc6c5[nH]4)CC3)c2n1 [Compound 197, 8-fluoro-2-{2-[4-(6-methoxy-3-oxopyrido[2,3-b]pyrazin-4(3H)-yl)piperidin-1-yl]ethyl}[1]benzopyrano[4,3-b]pyrrol-4(1H)-one] | – | 87% | – | 63% | – | 90% | – | – | 79% | – | – | – | – | –
16 | O=C1COc2ncc(F)cc2N1[C@H]1CC[C@H](NCc2cc3ncc4c(c3[nH]2)OCCO4)CC1 [Compound 314, 1-[trans-4-{[(2,3-dihydro-9H-[1,4]dioxino[2,3-d]pyrrolo[3,2-b]pyridin-8-yl)methyl]amino}cyclohexyl]-7-fluoro-1H-pyrido [2,3-b][1,4]oxazin-2(3H)-one] | 850 nM | – | 1140 nM | – | 7100 nM | – | > 100000 nM | – | – | – | – | – | – | –
17 | O=c1oc2ccccc2c2[nH]c(CNCC3CN(c4nccc5ccc(F)cc45)CCO3)cc12 (single isomer, unassigned) [Compound 182, 2-[({[4-(7-fluoroisoquinolin-1-yl)morpholin-2-yl]methyl}amino)methyl][1]benzopyrano[4,3-b]pyrrol-4(1H)-one] | 740 nM | 61% | 3210 nM | – | 640 nM | 92% | 740 nM | – | – | – | 52% | – | 50a % | –
18 | O=C1COc2ncc(F)cc2N1[C@H]1CC[C@H](N(CCO)Cc2cc3c(=O)oc4ccc(F)cc4c3[nH]2)CC1 [Compound 221, 8-fluoro-2-({[trans-4-(7-fluoro-2-oxo-2,3-dihydro-1H-pyrido[2,3-b][1,4]oxazin-1-yl)cyclohexyl](2-hydroxyethyl)amino}methyl)[1]benzopyrano[4,3-b]pyrrol-4(1H)-one] | 920 nM | 81% | 670 nM | 50% | 2760 nM | 100% | 2630 nM | 100% | – | – | – | – | – | –

— US10633366B2, “Antibacterial compounds” (AZIENDE CHIMICHE RIUNITE ANGELINI FRANCESCO A.C.R.A.F. …, priority 2016, dated 2020)
